According to article PMC9909315, “SY-707, an ALK/FAK/IGF1R inhibitor, suppresses growth and metastasis of breast cancer cells” (Acta Biochimica et Biophysica Sinica, 2022):

How the values were obtained:
Format in all cases: cell-based
[1] = test system: phosphorylation of FAK at Tyr397; experiment: Western blot of FAK phosphorylation in MCF-7 cells; details: MCF-7, 1 h treatment
Procedure: (§1) Equal amounts of cell lysates were loaded onto 10% SDS-PAGE gel and separated by electrophoresis. Separated proteins were then electro-transferred onto polyvinylidene fluoride (PVDF) membranes (Millipore, Bedford, USA). After being blocked with Tris-buffered saline containing 0.1% Tween-20 (TBST) and 5% bovine serum albumin (BSA), the membranes were incubated with primary antibodies at room temperature for 2 hours or at 4°C, then washed with TBST, followed by treatment with horseradish peroxidase (HRP)-conjugated goat anti-rabbit IgG secondary antibody at room temperature for another 1 h. The targeted protein bands were visualized using an enhanced chemiluminescence (ECL) plus system (Thermo Fisher Scientific). Primary antibodies against phospho-FAK (3283, 1:1000 dilution), phospho-ERK (4377, 1:2000 dilution), phospho-AKT (4060, 1:2000 dilution), FAK (3285, 1:1000 dilution), AKT (6703, 1:1000 dilution) and β-Actin (5125, 1:10,0000 dilution) were purchased from Cell Signaling Technology (Beverly, USA) and the HRP-conjugated goat anti-rabbit IgG (ZDR-5306, 1:10,000 dilution) was purchased from Jackson (West Grove, USA ).
(§2) Cells were cultured in 6-well plates and treated with the indicated concentrations of SY-707 for 1 h before stimulation with or without 100 ng/mL IGF1 for 10 min. Control cells received the drug vehicle with 0.1% DMSO. […]

MCF-7 cells [2] = experiment: Western blot for cleaved PARP; details: MCF-7, various concentrations, 24 h
Procedure: as §1
(§3) Cells were cultured and treated with SY-707 under the indicated concentrations (0.01, 0.1 and 1 μM respectively) for 24 h, then stained with Annexin-V and 7-AAD for cell apoptosis analysis by Guava flow cytometry.

T47D cells = experiment: Western blot for cleaved PARP; details: various concentrations, 24 h
Procedure: as §1, §3

MCF-7 cells [3] = experiment: Cell cycle analysis (PI, flow cytometry); details: MCF-7, 24 h, dose-dependent; decrease of S phase
Procedure: MCF-7 cells were treated with 0.1% DMSO (control) or with SY-707 solution at indicated concentrations for 24 h at 37°C, then the cells were harvested by centrifugation at 350 g and washed twice with PBS. Cell apoptosis was determined using the PE Annexin V Apoptosis Detection kit (BD Biosciences, San Jose, USA) following the manufacture’s guides. Breifly, cells were resuspended with 100 μL of binding buffer containing Annexin V and 7-AAD. After 15 min of incubation at room temperature in the dark, 400 μL of binding buffer was added to the mixture and the cells were analyzed with a Guava flow cytometer (Millipore). Cell cycle arrest was evaluated by incorporation of propidium (PI; Sigma-Aldrich, St Louis, USA) into the permeablized cells. After being treated with DMSO or compounds for 24 h, cells were harvested, washed twice with cold PBS, fixed with ice-cold 70% ethanol, followed by a secondary staining step with staining buffer (0.25 mg/mL RNase, 0.025 mg/mL PI, in PBS) for 1 h at 37°C. Compound regulation of cell-cycle was analyzed using the Guava flow cytometer. Data were analyzed with FlowJo software.

[4] = test system: phosphorylation of FAK at Tyr397; experiment: Western blot of FAK phosphorylation in T47D cells; details: 1 h treatment
Procedure: as §1, §2

solid cancer cells = experiment: Cell proliferation assay, summary over the cell line series; details: 72 h, read-out: IC50 values (summary over the solid cancer cell lines)
Procedure: MCF-7, T47D, MDA-MB-231, MIA Paca-2, PANC-1, SW620, HT-29, U87MG, and A549 cell lines were purchased from the Cell Bank of Chinese Academy of Science (Shanghai, China). Cells were cultured in DMEM or RPMI-1640 (Gibco, BRL, USA) supplemented with 10% FBS (HyClone, Logan, USA) and 50 IU penicillin/streptomycin in a humidified atmosphere with 5% CO 2 at 37°C. The effects of SY-707 on cell proliferation were measured using CellTiter-Glo ® or CellTiter-Blue ® Cell Viability Assay kits (Promega, Beijing, China). In brief, cells were seeded in 96-well plates at low destiny with 195 μL of medium per well. The stock solutions of compounds were 3-fold serially diluted with DMSO from 10 mM to 0.3 nM, and 4 μL of solution at each concentration was mixed with 96 μL of serum free medium, then 5 μL of the resulted solution was added to each well. […] The luminescence signals were measured using EnVision ® multilabel plate reader (PerkinElmer), and the fluorescent signals were examined using FlexStation 3 (Molecular Devices, Sunnyvale, USA), and the IC 50 values were calculated using Prism ® software (Version 5.0) and presented as the average of three independent experiments performed in duplicate.

phosphorylation of IGF1R = experiment: Western blot of IGF1R phosphorylation in T47D cells after IGF1; details: 1 h treatment, then 100 ng/mL IGF1 for 10 min, dose-dependent
Procedure: Equal amounts of cell lysates were loaded onto 10% SDS-PAGE gel and separated by electrophoresis. Separated proteins were then electro-transferred onto polyvinylidene fluoride (PVDF) membranes (Millipore, Bedford, USA). After being blocked with Tris-buffered saline containing 0.1% Tween-20 (TBST) and 5% bovine serum albumin (BSA), the membranes were incubated with primary antibodies at room temperature for 2 hours or at 4°C, then washed with TBST, followed by treatment with horseradish peroxidase (HRP)-conjugated goat anti-rabbit IgG secondary antibody at room temperature for another 1 h. The targeted protein bands were visualized using an enhanced chemiluminescence (ECL) plus system (Thermo Fisher Scientific). […]
Figure4 Inhibitory effects of SY-707 on the phosphorylation of FAK(A,B) Concentration-dependent inhibition of SY-707 on phosphorylation of FAK in T47D (A) and MCF-7 (B) cells. […] Cell lysates were analyzed by western blot analysis using specific antibodies against p-FAK, p-Pyk2, p-AKT and p-ERK respectively. […] Cell lysates were analyzed by western blot analysis using specific antibodies against p-IGF1R, p-STAT3, p-AKT and p-ERK respectively.

COc1cc(N2CCC(N3CCN(C)CC3)CC2)ccc1Nc1nc2c(c(Nc3ccccc3S(=O)(=O)NC(C)C)n1)CCN2 [SY-707, N-isopropyl-2-((2-((2-methoxy-4-(4-(4-methylpiperazin-1-yl)piperidin-1-yl)phenyl)amino)-6,7-dihydro-5H-pyrrolo[2,3-d]pyrimidin-4-yl)amino)benzenesulfonamide] was tested, and the “phosphorylation of FAK at Tyr397” value [1] was “dose-dependently suppressed”, the “cleaved PARP” value (MCF-7 cells [2]) was “markedly detected” and the “cleaved PARP” value (T47D cells) was “markedly detected”. The cell cycle arrest (MCF-7 cells [3]) was “pronounced G2/M phase arrest”, the “phosphorylation of FAK at Tyr397” value [4] was “dose-dependently suppressed” and the IC50 (solid cancer cells) was 0.5 to 10 µM. The “phosphorylation of IGF1R” value (phosphorylation of IGF1R) was “block the phosphorylation”.
